Source: patent US20260355318A1, “MOLECULAR MACHINES FOR TREATMENT OF CANCER, FUNGAL INFECTIONS, OR BACTERIAL INFECTIONS” (priority 2022, published 2026)
Like-named read-outs stand apart in the source and are kept apart here.

What was measured:
[1] = tested on: persister cells of E. coli; test: Persister eradication, E. coli; format: cell-based, Escherichia coli; conditions: 1×MIC, 405 nm
Method: Persister cells of E. coli were prepared by adding ampicillin (100 μg mL^−1) to exponential-phase cells (OD600 of ≈0.8) followed by continuous agitation for another 3 b, as previously described (Keren et al., 2004). In the case of S. aureus, almost all stationary-phase are considered to be persistent (Keren et al., 2004). S. aureus cells were grown at 37 ° C and 220 rpm in LB broth to an OD600 of 0.3. Cells were then diluted 1:1000 in 25 mL LB and grown for 16 h at 37 ° C and 220 rpm in 250 mL flasks. […] At specified time points (0, 1, 2, 3, 4 and 5, 10 and 15 min), 50-μL aliquots were removed, serially diluted and spot-plated onto LB agar plates to determine colony-forming units per mL (CFU mL^−1). Only dilutions that yielded 10-100 colonies were counted. Results were expressed as log (N/NO) whereby N is the CFU mL^−1 at each irradiation time point and NO is the initial CFU mL^−1 of the corresponding sample. […].

[2] = tested on: mitochondrial cytochrome c; test: Cytochrome c release; format: cell-based, Candida albicans; conditions: 2×MIC, p<0.05
Method: Cells were harvested for protoplast preparation by digestion with zymolyase 20 T (20 mg mL-1, US Biological Life Sciences, MA, USA) in 0.1 M potassium phosphate buffer (pH 6.0) containing 1 M sorbitol for 1 h at 30 °C. Mitochondrial cytochrome c was extracted and reduced with ascorbic acid (0.5 mg mL^−1) as previously described (Yun and Lee, 2016). The absorbance at 550 nm was determined on a Beckman Coulter DU 800 spectrophotometer (Fullerton, CA, USA). Cytochrome c levels were normalized to the protein content determined using the Pierce assay (Pierce™ BCA Protein Assay Kit, Thermo Fisher Scientific, MA, USA).

[3] = tested on: human embryonic kidney cells (HEK); test: Toxicity to HEK cells (CellTiter-Glo); format: cell-based; conditions: HEK293, 5 min, 405 nm light 146 mW cm^−2, 5 min, read-out: IC50 (HEK viability)
Method: Biocompatibility of MM with primary NHDF and HEK293T cells was assessed using the CellTiter-Glo® Luminescent Cell Viability Assay (Promega), per the manufacturer's instructions. The MM concentrations that reduced cell viability by 50% (IC50) were identified and the therapeutic index was calculated as the ratio between the IC50 and the MIC at a light intensity of 146 mW cm^−2.

[4] = tested on: S. aureus; test: Time-kill / light-dose experiments, S. aureus; format: cell-based, Staphylococcus aureus; conditions: 0.625 to 5 μM of MM, 405 nm
Method: (§1) Serial dilutions of irradiated cell suspensions were prepared in PBS. A volume of 10 AL of the appropriate serial dilutions was spot-plated onto LB agar plates. Following overnight incubation at 30 or 37 ° C, depending on the strain, bacterial viability was assessed as colony forming units (CFU) per mL. Results were expressed as log (N/NO) whereby N is the CFU mL^−1 at each irradiation time point and NO is the initial CFU mL^−1 of the corresponding sample. Only dilutions that yielded 10-100 colonies were counted.

[5] = tested on: A. baumannii; test: Time-kill / light-dose experiments, A. baumannii; format: cell-based, Acinetobacter baumannii; conditions: highest concentration of MM (5 μM), 405 nm
Method: as §1

[6] = tested on: E. coli; test: MIC, E. coli; format: cell-based, Escherichia coli BW25113; conditions: Escherichia coli, read-out: MIC of MM
[7] = Estimated rotation rate after light activation; conditions: based on known motors with similar core skeletons
[8] = tested on: C. albicans; test: Development of resistance / cross-resistance in C. albicans (serial passage, single-step); format: cell-based; conditions: Candida albicans, read-out: MIC of MM in antifungal-resistant C. albicans
Method: FIG. 3: Evaluation of the development of resistance to MMs in C. albicans. For the stepwise resistance assessment by serial passage (left), C. albicans cell suspensions were treated with increasing concentrations (0.3125-160 μM) of different MMs (8 mM stock in DMSO) and then irradiated with […] light (87.6 J cm^−2). The irradiated cell suspensions were then inoculated in MOPS-buffered RPMI 1640 (pH 7.0, Sigma, MO, USA), and the tubes were incubated at 30 ° C for 48 h. […] Cells able to grow at 0.5×MIC of each MM were collected by centrifugation (5,000×g, 5 min), resuspended and re-challenged with a range of MM concentrations and irradiated with 405 nm light (87.6 J cm^−2). The procedure was repeated for a total of 20 consecutive cycles. […] Irradiated cells were then inoculated in YPD and incubated at 30 °C. However, MM-resistant colonies could not be recovered even after 14 days of incubation. Created with Biorender.com.
A modified version of the broth microdilution serial passage method was used to assess the development of resistance to visible-light-activated MMs in C. albicans (Kapoor et al., 2019). C. albicans cell suspensions were prepared and irradiated as previously described for the determination of MM MIC. Cells were then inoculated into buffered RPMI 1640 and incubated at 30 ° C for 48 h. Cells able to grow at 0.5×MIC of MM were centrifuged (5,000×g, 5 min), resuspended, rechallenged with different MM concentrations, and irradiated with 405-nm light (87.6 J cm^−2). The procedure was repeated for 20 consecutive cycles. The antifungals AMB, CAS, and FLC were processed similarly, except that light was omitted, and used as controls.

[9] = tested on: E. coli; test: Electron microscopy (TEM, SEM) of E. coli; format: cell-based, Escherichia coli; conditions: 0.5×MIC, 43.8 J cm^−2
Method: E. coli was cultured to mid-log phase in MHB media. Cells were collected and resuspended in PBS (1×) to an OD600 of ≈0.05. […] Cells were then irradiated for 5 min at 146 mW cm-2 (43.8 J cm^−2) after which cells were fixed with Karnovsky's fixative (Carlson et al., 2003), and post-fixed with 1% osmium, and dehydrated with a series of ethanol washes. For TEM, samples were embedded in epoxy resin (PolyBed 812; Polyscienses, Inc., Warrington, PA, United States) after dehydration in a graduated 50-100% ethanol concentration series of washes. Ultrathin sections (65 nm) were cut using a Leica EM UC7 ultramicrotome (Leica Microsystems, Wetzlar, Germany) and post-stained with uranyl acetate and lead citrate. Specimens were observed using a JEOL JEM2100 TEM ([…], Japan) operating at an accelerating voltage of 80 kV. For SEM, following ethanol dehydration samples were critical point dried using a Leica EM CPD300 (Leica Microsystems, Wetzlar, Germany), sputter-coated with 10 nm of gold, and imaged with an FEI Apreo SEM (FEI Apreo, ThermoFisher Scientific, Waltham, MA) using a secondary electron detector.

[10] = E. coli, Table 9, 405 nm light 43.8 J cm^−2

| SMILES | time to reduce persister cells to limit of detection [1] | mitochondrial cytochrome c levels [2] | IC50 [3] | light dose for complete eradication [4] | light dose for complete eradication [5] | MIC ([6]; E. coli BW25113, 405 nm light 43.8 J cm^−2) | MIC [6, 10] | estimated rotation rate after light activation [7] | MIC [8] | cell morphology (TEM) [9] |
| --- | --- | --- | --- | --- | --- | --- | --- | --- | --- | --- |
| C[C@@H]1Cc2ccc3ccccc3c2/C1=C1\c2ccccc2Sc2cc(NCCN(C)C)ccc21 [MM 1, N^1N^1-dimethyl-N^2-(9-(2-methyl-2,3-dihydro-1H-cyclopenta[a]naphthalen-1-ylidene)-9H-thioxanthen-3-yl) ethane-1,2-diamine] | 10 min | significant reductions in mitochondrial cytochrome c levels | 5 µM | 16 J cm^−2 | at least 40 J cm^−2 | 1.25 µM | 1.25 µM | 3 MHz | 1.25 µM | substantial changes in cell morphology |
| C[C@@H]1Cc2ccc3ccccc3c2/C1=C1\c2ccccc2Sc2cc(NCCN)ccc21 (racemic) [MM 6, N^1-(9-(2-methyl-2,3-dihydro-1H-cyclopenta[a]naphthalen-1-ylidene)-9H-thioxanthen-3-yl)ethane-1,2-diamine] | 5 min | significant reductions in mitochondrial cytochrome c levels | 5 µM | 16 J cm^−2 | at least 40 J cm^−2 | – | 2.5 µM | 3 MHz | 2.5 µM | substantial changes in cell morphology |
